Target: T1, AsPC-1 HiBiT-KRASG12D (Homo sapiens, UniProt P01116, G12D)
T1 construct: insert the HiBiT tag onto the N-terminus of one or more of the endogenous KRAS alleles; endogenous in cells; host or cells: AsPC-1 (ATCC CRL-1682), CRISPR-Cas9 knock-in clone, one tagged allele
Assay: HiBiT degradation assay (G12D), AsPC-1 HiBiT-KRASG12D cells
Format: cell-based
Conditions: 24 hours treatment; for Dmax: ASPC1, AsPC-1 HiBiT-KRASG12D cells, maximum degradation observed; for DC50: AsPC-1 HiBiT-KRASG12D cells, HiBiT luminescence
Summary of the method: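 HiBiT-KRAS abundance was read as Nano-Glo HiBiT lytic luminescence (45 min, room temperature) after a PBS wash. Before that, a 4 h alamar blue fluorescence read, normalized to DMSO, monitored viability. Treatment lasted 24 hours at 37 °C, in triplicate, using AsPC-1 cells with endogenous N-terminally HiBiT-tagged KRAS G12D.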

T1 sequence (P01116 1-188 isoform P01116-2 G12D): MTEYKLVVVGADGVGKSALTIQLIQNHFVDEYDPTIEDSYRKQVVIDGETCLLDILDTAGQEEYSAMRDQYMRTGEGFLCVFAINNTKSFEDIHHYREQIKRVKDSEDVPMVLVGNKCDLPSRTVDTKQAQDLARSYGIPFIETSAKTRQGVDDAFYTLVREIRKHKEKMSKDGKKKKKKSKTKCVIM

Q: Which Dmax does the source give for CCc1cccc2cc(O)cc(-c3ncc4c(N5CC6CCC(C5)N6)nc(OC[C@@]56CCCN5[C@H](COC(=O)N5CCN(c7cc([C@@H](C(=O)N8C[C@H](O)C[C@H]8C(=O)N[C@@H](C)c8ccc(-c9scnc9C)cc8)C(C)C)on7)C[C@@H]5C)CC6)nc4c3F)c12 [Compound 326, [(3S,8S)-8-[[4-(3,8-diazabicyclo[3.2.1]octan-3-yl)-7-(8-ethyl-3-hydroxy-1-naphthyl)-8-fluoro-pyrido[4,3-d]pyrimidin-2-yl]oxymethyl]-1,2,3,5,6,7-hexahydropyrrolizin-3-yl]methyl (2S)-4-[5-[(1S)-1-[(2S,4R)-4-hydroxy-2-[[(1S)-1-[4-(4-methylthiazol-5-yl)phenyl]ethyl]carbamoyl]pyrrolidine-1-carbonyl]-isobutyl]isoxazol-3-yl]-2-methyl-piperazine-1-carboxylate] here?
A: < 20%

Q: What about the DC50 of the same compound?
A: < 0.6 µM

Q: CCc1cccc2cc(O)cc(-c3ncc4c(N5CC6CCC(C5)N6)nc(OCCN5CCC(CN6CC(Oc7cc([C@@H](C(=O)N8C[C@H](O)C[C@H]8C(=O)N[C@@H](C)c8ccc(-c9scnc9C)cc8)C(C)C)on7)C6)CC5)nc4c3F)c12 [Compound 245] was tested. Which DC50 did it give?
A: > 3 µM

Q: CCc1cccc2cccc(-c3ncc4c(N5CC6CCC(C5)N6)nc(OC[C@@]56CCCN5[C@H](COc5cc([C@@H](C(=O)N7C[C@H](O)C[C@H]7C(=O)N[C@@H](C)c7ccc(-c8scnc8C)cc7)C(C)C)on5)CC6)nc4c3F)c12 [Compound 55, (2S,4R)-1-[(2S)-2-(3-{[(3S,7aS)-7a-{[(4-{3,8-diazabicyclo[3.2.1]octan-3-yl}-7-(8-ethylnaphthalen-1-yl)-8-fluoropyrido[4,3-d]pyrimidin-2-yl)oxy]methyl}-hexahydro-1H-pyrrolizin-3-yl]methoxy}-1,2-oxazol-5-yl)-3-methylbutanoyl]-4-hydroxy-N-[(1S)-1-[4-(4-methyl-1,3-thiazol-5-yl)phenyl]ethyl]pyrrolidine-2-carboxamide] was tested. Which DC50 did it give?
A: > 3 µM

Q: Which results are given for CCc1cccc2cc(O)cc(-c3ncc4c(N5CC6CCC(C5)N6)nc(OC[C@@]56CCCN5[C@H](COC(=O)N5CC(COc7cc([C@@H](C(=O)N8C[C@H](O)C[C@H]8C(=O)N[C@@H](C)c8ccc(-c9scnc9C)cc8)C(C)C)on7)C5)CC6)nc4c3F)c12 [Compound 115, [(3S,7aS)-7a-{[(4-{3,8-diazabicyclo[3.2.1]octan-3-yl}-7-(8-ethyl-3-hydroxynaphthalen-1-yl)-8-fluoropyrido[4,3-d]pyrimidin-2-yl)oxy]methyl}-hexahydro-1H-pyrrolizin-3-yl]methyl 3-[({5-[(2S)-1-[(2S,4R)-4-hydroxy-2-{[(1S)-1-[4-(4-methyl-1,3-thiazol-5-yl)phenyl]ethyl]carbamoyl}pyrrolidin-1-yl]-3-methyl-1-oxobutan-2-yl]-1,2-oxazol-3-yl}oxy)methyl]azetidine-1-carboxylate]?
A: Dmax: 20 to 60%; DC50: 0.6 to 1 µM

Q: With CCc1cccc2cc(O)cc(-c3ncc4c(N5CC6CCC(C5)N6)nc(OC[C@]56CCCN5[C@H](COC(=O)N5CCC(Oc7cc([C@@H](C(=O)N8C[C@H](O)C[C@H]8C(=O)N[C@@H](C)c8ccc(-c9scnc9C)cc8)C(C)C)on7)CC5)CC6)nc4c3F)c12 [Compound 119, [(3S,7aR)-7a-{[(4-{3,8-diazabicyclo[3.2.1]octan-3-yl}-7-(8-ethyl-3-hydroxynaphthalen-1-yl)-8-fluoropyrido[4,3-d]pyrimidin-2-yl)oxy]methyl}-hexahydro-1H-pyrrolizin-3-yl]methyl 4-({5-[(2S)-1-[(2S,4R)-4-hydroxy-2-{[(1S)-1-[4-(4-methyl-1,3-thiazol-5-yl)phenyl]ethyl]carbamoyl}pyrrolidin-1-yl]-3-methyl-1-oxobutan-2-yl]-1,2-oxazol-3-yl}oxy)piperidine-1-carboxylate] as the compound, how does the Dmax read?
A: 20 to 60%

Q: What about the DC50 of the same compound?
A: < 0.6 µM

Q: CCc1cccc2cccc(-c3ncc4c(N5CC6CCC(C5)N6)nc(OC[C@]56CCCN5[C@H](COC(=O)N5CCN(c7cc([C@H](C(=O)N8C[C@H](O)C[C@H]8C(=O)N[C@@H](C)c8ccc(-c9scnc9C)cc8)C(C)C)on7)CC5)CC6)nc4c3F)c12 [Compound 57] was tested. Which Dmax did it give?
A: 60 to 80%

Q: What about the DC50 of the same compound?
A: < 0.6 µM

Q: How did the DC50 turn out when CCc1cccc2cc(O)cc(-c3ncc4c(N5CCCCCC5)nc(OC[C@@]56CCCN5[C@H](COc5cc([C@@H](C(=O)N7C[C@H](O)C[C@H]7C(=O)N[C@@H](C)c7ccc(-c8scnc8C)cc7)C(C)C)on5)CC6)nc4c3F)c12 (single isomer, unassigned) [Compound 339] was run?
A: > 3 µM

Q: Which Dmax does the source give for CCc1cccc2cc(O)cc(-c3ncc4c(N5CC6CCC(C5)N6)nc(OC5CCN(CC6CCN(c7cc([C@@H](C(=O)N8C[C@H](O)C[C@H]8C(=O)N[C@@H](C)c8ccc(-c9scnc9C)cc8)C(C)C)on7)CC6)CC5)nc4c3F)c12 [Compound 167, (2S,4R)-1-[(2S)-2-{3-[4-({4-[(4-{3,8-diazabicyclo[3.2.1]octan-3-yl}-7-(8-ethyl-3-hydroxynaphthalen-1-yl)-8-fluoropyrido[4,3-d]pyrimidin-2-yl)oxy]piperidin-1-yl}methyl)piperidin-1-yl]-1,2-oxazol-5-yl}-3-methylbutanoyl]-4-hydroxy-N-[(1S)-1-[4-(4-methyl-1,3-thiazol-5-yl)phenyl]ethyl]pyrrolidine-2-carboxamide] here?
A: 20 to 60%

Q: What about the DC50 of the same compound?
A: 1 to 3 µM

Q: Which Dmax does the source give for CCc1cccc2cccc(-c3ncc4c(N5CC6CCC(C5)N6)nc(OC[C@@]56CCCN5[C@H](COc5cc([C@H](C(=O)N7C[C@H](O)C[C@H]7C(=O)N[C@@H](C)c7ccc(-c8scnc8C)cc7)C(C)C)on5)CC6)nc4c3F)c12 [Compound 54, (2S,4R)-1-[(2R)-2-(3-{[(3S,7aS)-7a-{[(4-{3,8-diazabicyclo[3.2.1]octan-3-yl}-7-(8-ethylnaphthalen-1-yl)-8-fluoropyrido[4,3-d]pyrimidin-2-yl)oxy]methyl}-hexahydro-1H-pyrrolizin-3-yl]methoxy}-1,2-oxazol-5-yl)-3-methylbutanoyl]-4-hydroxy-N-[(1S)-1-[4-(4-methyl-1,3-thiazol-5-yl)phenyl]ethyl]pyrrolidine-2-carboxamide] here?
A: 80 to 100%

Q: And the DC50?
A: < 0.6 µM

Q: With C#Cc1c(F)ccc2cc(O)cc(-c3ncc4c(N5CC6CCC(C5)N6)nc(OCCN5CCC6(CC5)CN(c5cc([C@@H](C(=O)N7C[C@H](O)C[C@H]7C(=O)N[C@@H](C)c7ccc(-c8ccnn8C)cc7)C(C)C)on5)C6)nc4c3F)c12 (relative stereo) [Compound 84, (2S,4R)-1-[(2R*)-2-[3-(7-{2-[(4-{3,8-diazabicyclo[3.2.1]octan-3-yl}-7-(8-ethynyl-7-fluoro-3-hydroxynaphthalen-1-yl)-8-fluoropyrido[4,3-d]pyrimidin-2-yl)oxy]ethyl}-2,7-diazaspiro[3.5]nonan-2-yl)-1,2-oxazol-5-yl]-3-methylbutanoyl]-4-hydroxy-N-[(1S)-1-[4-(1-methyl-1H-pyrazol-5-yl)phenyl]ethyl]pyrrolidine-2-carboxamide] as the compound, how does the Dmax read?
A: 60 to 80%

Q: And the DC50?
A: 1 to 3 µM

From patent publication US20250206732A1, “COMPOUNDS AND METHODS FOR THE TARGETED DEGRADATION OF KRAS” (Arvinas Operations, Inc., priority 2022, published 2025)
